Experimental data from article PMC9551036, “A selective and orally bioavailable VHL-recruiting PROTAC achieves SMARCA2 degradation in vivo” (Nature Communications, 2022).
Values joined by “and” are separate entries in the source; they are usually repeats but may differ in a detail not shown here. Equal entries are not always repeated. Where two headings read alike, the source gives them in different places.

Key:
[1] = system: Caco-2 cell monolayer; assay: Bidirectional permeability measurement in Caco-2 cells; assay type: in vitro ADME
Experimental: Bidirectional permeability of test compounds across a Caco-2 cell monolayer was measured as described[43] with a modification of preincubation time[44]: Briefly, Caco-2 cells were seeded onto Transwell inserts (#3379, Corning, Wiesbaden, Germany) at a density of 160000 cells/cm^2 and cultured in DMEM (high glucose) containing 10% fetal bovine serum for 14–21 days. Cells were incubated with culture media containing 1 µM test compound for 24 h. […] Samples were taken at different time points for up to 2 h. Test compound in the samples was quantified with LC-MS/MS. To elucidate the role of drug transporter P-gp in the transcellular transport, permeability measurement was performed in the absence and presence of the selective P-gp inhibitor zosuquidar (5 µM final concentration). Apparent permeability coefficients (Papp,AB, Papp,BA) were calculated as follows:1 Papp,AB=Q_AB/C0×s×t 2 Papp,BA=Q_BA/C0×s×t where Q is the amount of compound recovered in the receiver compartment after the incubation time t, C0 the initial compound concentration given to the donor compartment, and s the surface area of the Transwell inserts. Efflux ratio is calculated as the quotient of Papp,BA (mean of duplicate) to Papp,AB (mean of duplicate). […] In addition, Transepithelial electrical resistance (TEER) values were measured for each plate before the permeability assay. All three parameters (efflux of the reference substrates, Papp values of the low permeable compound, and TEER values) were used to ensure the quality of the assays.

[2] = target: T1, SMARCA2^BD (Homo sapiens, UniProt P51531); assay: SPR binding to immobilised SMARCA2 bromodomain; conditions: SPR, read-out: SMARCA2 KD
T1 construct: P51531-2, residues 1373-1493 with additional N-terminal SM residues; GST (TEV site) (N, cleaved yes); made in house; host or cells: Escherichia coli BL21(DE3)
T1 sequence (P51531 1373-1493 isoform P51531-2): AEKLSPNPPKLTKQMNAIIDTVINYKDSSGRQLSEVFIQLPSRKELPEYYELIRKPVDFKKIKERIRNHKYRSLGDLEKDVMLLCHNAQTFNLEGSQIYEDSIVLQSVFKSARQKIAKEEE
Experimental: SMARCA4^BD was provided by the Structural Genomics Consortium (SGC), Toronto[32] and SMARCA2^BD and PRM1^BD5 were synthesised by GeneArt then subcloned into pDEST15 vectors (Invitrogen). The VCB complex was expressed and purified as described previously, with the modification that 0.3 mM IPTG was used for induction of expression. […] Both were stored in 20 mM 4-(2-hydroxyethyl)−1-piperazineethanesulfonic acid (HEPES), 150 mM sodium chloride and 1 mM tris(2-carboxyethyl)phosphine (TCEP) pH 7.5. SMARCA2^BD, SMARCA4^BD and PBRM1^BD5 were expressed in Escherichia coli BL21(DE3) as N-terminal GST fusion proteins with a TEV protease cleavage site. Expression and purification of these proteins has been described previously[32],[33]. Starter cultures were grown overnight at 37 °C in 10 mL of Luria-Bertani (LB) medium with ampicillin (100 μg/mL). The starter cultures were diluted (1:100) in Terrific Broth (TB) medium with ampicillin (100 μg/mL) and grown in a shaking incubator at 37 °C to an optical density (OD600) ~1 before the temperature was lowered for induction (to 23 °C for SMARCA2^BD or 18 °C for SMARCA4^BD and PRRM1^BD5). […] Cells were harvested by centrifugation and stored at −80 °C prior to purification. […] The Lysis buffers were as follows: for SMARCA2^BD: 50 mM HEPES, 500 mM sodium chloride, 5% glycerol, 5 mM dithiothreitol (DTT); for SMARCA4^BD: 25 mM HEPES, 0.3 M sodium chloride, 5% glycerol, 10 mM DTT, pH 7.5; for PBRM1^BD5: 25 mM HEPES, 300 mM sodium chloride, 5% glycerol, 10 mM DTT, pH 7.8; in each case supplemented with complete protease inhibitors (Roche). Affinity purification was performed using Glutathione Sepharose 4B (GE Healthcare) in batch mode or on-column. […] For SMARCA2^BD, prior to TEV protease cleavage the eluted GST-tagged BD was first dialysed into desalting buffer (20 mM HEPES, 250 mM sodium chloride, pH 7.0 + 0.5% glycerol). Where TEV cleavage was performed in solution, a second affinity (GST-trap) column purification step was carried out to remove the GST-tag and uncleaved GST-tagged protein. Proteins were further purified by SEC (HiLoad Superdex-75, 16/600) (GE Healthcare) and stored in Storage buffer (for SMARCA2^BD: 20 mM HEPES, 150 mM sodium chloride, pH 7.5; for SMARCA4^BD: 10 mM HEPES, 0.5 M NaCl, 5% glycerol, pH 7.5; for PBRM1^BD5: 20 mM HEPES, 300 mM NaCl, 5 mM DTT, pH 7.8). For AlphaScreen assays, eluted GST-tagged BDs were purified directly by SEC in the respective storage buffers without TEV cleavage. All chromatography purification steps were performed either at room temperature or 4 °C using an ÄKTA FPLC purification system (GE Healthcare) or a plastic Econo-Pac column (Bio-Rad).
SPR data were acquired on Biacore 8K or T200 instruments (Cytiva). Target proteins were immobilised at 25 °C on CM5 chips by amine coupling (EDC/NHS, Cytiva) in HBS-P+ running buffer (pH 7.4), containing 2 mM TCEP. […] The reference surface was subsequently deactivated using 1 M ethanolamine. […] Biotinylated VCB was prepared as previously described[27]: in brief, the complex was mixed 1:1 with EZ-Link NHS–PEG4–biotin (Thermo Scientific) and incubated at room temperature for 1 h. Unreacted NHS-biotin was removed using a PD-10 desalting column (Cytiva) into 20 mM HEPES, pH 7.5, 150 mM sodium chloride and 1 mM DTT. The reference surface was generated by deactivating the EDC/NHS-treated surface with 1 M ethanolamine. All interaction experiments were done at 6 °C in running buffer (20 mM TRIS, pH 8.3, 150 mM potassium chloride, 2 mM magnesium chloride, 2 mM TCEP, 0.005% TWEEN 20, 1% dimethyl sulfoxide). For ternary complex measurements, a sensor chip surface with VCB immobilised was used (preparation as described above). Experiments were run in dual-inject mode with 10 µM SMARCA present during the injection and dissociation phase. Sensorgrams from reference surfaces and blank injections were subtracted from the raw data prior to data analysis using Biacore Insight software.

[3] = system: VCB: PROTAC: SMARCA4^BD ternary complex; assay: TR-FRET ternary complex affinity and cooperativity, SMARCA4; assay type: binding, human; conditions: ratio TR-FRET EC50 / TR-FRET EC50 +VCB measured in the same run, SMARCA4BD
[4] = Microsomal stability; assay type: in vitro ADME; conditions: for Mic. Stab. Human / Mic. Stab. Human QH: human liver microsomes; for Mic. Stab. Mouse / Mic. Stab. Mouse QH: mouse liver microsomes; for Mic. Stab. Rat / Mic. Stab. Rat QH: rat liver microsomes
Experimental: […] Reactions were terminated by addition of acetonitrile and precipitates separated by centrifugation. Compound concentrations in supernatants were measured by HPLC-MS/MS and clearance was calculated from compound half-lives using the well-stirred liver model.

| Compound | Caco-2 Pab ([1]; Caco-2) | Caco-2 Pab ([1]; Caco-2, a to b) | Kd ([2]; SMARCA2BD, mean ± SD) | Kd ([2]; individual replicates) | cooperativity α (SMARCA4BD) [3] | Mic. Stab. Human [4] | Mic. Stab. Human QH [4] | Mic. Stab. Mouse [4] | Mic. Stab. Mouse QH [4] | Mic. Stab. Rat [4] | Mic. Stab. Rat QH [4] | Caco-2 Efflux ratio ([1]; Caco-2) |
| --- | --- | --- | --- | --- | --- | --- | --- | --- | --- | --- | --- | --- |
| Cc1ncsc1-c1ccc(CNC(=O)[C@@H]2C[C@@H](O)CN2C(=O)[C@@H](NC(=O)C2(F)CC2)C(C)(C)C)c(OCCN2CCC(c3ccc4c(c3)n(C3CCCC3)c3nc(=O)c5c(Br)cccc5n43)CC2)c1 [compound 20] | <0.4 10-6 cm/s | <4.04e-07 cm/s | 104 ± 6 nM | 103 nM and 98.8 nM and 110 nM | 0.4 ± 0.0 | 89 ± 7 % QH | 92.780% and 92.740% and 91.810% and 92.050% and 77.420% | 76 ± 2 % QH | 73.270% and 75.530% and 75.780% and 78.330% | 33 ± 3 % QH | 34.870% and 29.970% and 29.780% and 36.100% and < 23.080% | – |
| Cc1ncsc1-c1ccc([C@H](CC[C@@H](C)CCN2CCC(c3ccc4c(c3)n(C3CCCC3)c3nc(=O)c5c(Br)cccc5n43)CC2)NC(=O)[C@@H]2C[C@@H](O)CN2C(=O)[C@@H](NC(=O)C2(F)CC2)C(C)(C)C)cc1 [compound 29] | 2 ± 0.2 10-6 cm/s | 1.9e-06 cm/s and < 1.9e-06 cm/s and 2.4e-06 cm/s | 255 ± 42 nM | 304 nM and 227 nM and 235 nM | 7.0 ± 1.3 | <24 % QH | <24.400 <24.400% | <24 % QH | <24.200 <24.200% | <23 % QH | <23.100 <23.100% | – |
| Cc1ncsc1-c1ccc([C@H](COCCN2CCC(c3ccc4c(c3)n(C3CCCC3)c3nc(=O)c5c(Br)cccc5n43)CC2)NC(=O)[C@@H]2C[C@@H](O)CN2C(=O)[C@@H](NC(=O)C2(N(C)C)CC2)C(C)(C)C)cc1 [compound 26] | – | <2.7e-06 cm/s | 118 ± 5 nM | 119 nM and 123 nM and 113 nM | 2.6 ± 0.7 | 86 ± 0.3 % QH | 86.500% and 86.000% and 86.480% | >88 % QH | > 88.400% and 90.900% | 58 ± 3 % QH | 60.400% and 54.700% and 57.700% | – |
| Cc1ncsc1-c1ccc([C@H](COCCCN2CCC(c3ccc4c(c3)n(C3CCCC3)c3nc(=O)c5c(Br)cccc5n43)CC2)NC(=O)[C@@H]2C[C@@H](O)CN2C(=O)[C@@H](NC(=O)C2(F)CC2)C(C)(C)C)cc1 [compound 27] | 5 10-6 cm/s | – | 217 ± 30 nM | 244 nM and 185 nM and 221 nM | 2.8 ± 0.5 | 43 ± 5 % QH | 46.200% and 38.900% | <25 % QH | 24.700% and < 24.200% | <23 % QH | <23.100 <23.100% | 4.167 and 4 |
| Cc1ncsc1-c1ccc(CNC(=O)[C@@H]2C[C@@H](O)CN2C(=O)[C@@H](NC(=O)C2(F)CC2)C(C)(C)C)c(OCCOCCOCCN2CCC(c3ccc4c(c3)n(C3CCCC3)c3nc(=O)c5c(Br)cccc5n43)CC2)c1 [compound 21] | <0.3 10-6 cm/s | <2.83e-07 cm/s | 680 ± 121 nM | 650 nM and 814 nM and 577 nM | 4.0 ± 0.2 | 87 ± 10 % QH | 92.470% and 92.660% and 75.300% | 56 ± 10 % QH | 62.650% and 61.360% and 44.780% | 45 ± 13 % QH | 57.680% and 45.850% and 32.500% | – |
| Cc1ncsc1-c1ccc(CNC(=O)[C@@H]2C[C@@H](O)CN2C(=O)[C@@H](NC(=O)C2(F)CC2)C(C)(C)C)c(OCCOCCOCCOCCN2CCC(c3ccc4c(c3)n(C3CCCC3)c3nc(=O)c5c(Br)cccc5n43)CC2)c1 [compound 22] | <0.3 10-6 cm/s | <2.78e-07 cm/s | 1100 ± 433 nM | 1570 nM and 715 nM and 1020 nM | 9.1 ± 0.7 | 83 ± 13 % QH | 92.060% and 73.150% | 58 % QH | 57.720% | 40 % QH | 40.440% | – |
